Where two headings read alike, the source gives them in different places.
What was measured:
[1] = cited from earlier work
[2] = cited from earlier work; remark: listed apart in the source
[3] = Average score of NAC and NAL depletion and phototoxicity or photoallergy determination, fluorescence detection; settings: for Average score (%) / Average score (%) under light irradiation: under light irradiation; for Average score (%): single compound
[4] = NAC depletion under and without ultraviolet irradiation, HPLC with fluorescence detection (284 nm excitation, 333 nm fluorescence); settings: for NAC Depletion (%) / NAC Depletion (%) under light irradiation: under light irradiation; for NAC Depletion (%): single compound
[5] = NAL depletion under and without ultraviolet irradiation, HPLC with fluorescence detection (284 nm excitation, 333 nm fluorescence); settings: for NAL Depletion (%) / NAL Depletion (%) under light irradiation: under light irradiation; for NAL Depletion (%): single compound
[6] = NAC depletion under and without ultraviolet irradiation, HPLC with UV detection (281 nm)
[7] = NAL depletion under and without ultraviolet irradiation, HPLC with UV detection (281 nm)
[8] = Average score of NAC and NAL depletion and phototoxicity or photoallergy determination, UV detection
[9] = photoallergic compound concentration 0.05 mg/mL
[10] = photoallergic compound concentration 0.2 mg/mL
[11] = photoallergic compound concentration 0.5 mg/mL

In the case of `CC1(C)S[C@@H]2[C@H](NC(=O)Cc3ccccc3)C(=O)N2[C@H]1C(=O)O` [No. 44, Penicillin G, reference compound], the In vivo phototoxicity ([1]; literature classification) is given as “Negative”, the In vivo photoallergy ([2]; literature classification) is given as “Negative” and the “Average score (%)” value [3] is given as 1.8%. The “NAC Depletion (%)” value [4] was 2.4% and the “NAL Depletion (%)” value [5] was 1.2%.

In the case of “Tetrachlorosalicylanilide [No. 12, reference compound]”, the In vivo phototoxicity ([1]; literature classification) is listed as “Positive”, the In vivo photoallergy ([2]; literature classification) is listed as “Positive” and the “Average score (%)” value [3] is listed as 92.0%. For the same compound, the “NAC Depletion (%)” value [4] was 97.4% and the “NAL Depletion (%)” value [5] was 86.5%.

For `COc1c2occc2cc2ccc(=O)oc12` [No. 3, 8-Methoxypsoralen, reference compound], the In vivo phototoxicity ([1]; in vivo) is listed as “Positive”, the In vivo photoallergy ([2]; in vivo) is listed as “Positive” and the “Average score (%)” value [3] is listed as 72.0%. The “NAC Depletion (%)” value [4] was 98.6% and the “NAL Depletion (%)” value [5] was 45.4%.

In the case of `NS(=O)(=O)c1cc2c(cc1Cl)NCNS2(=O)=O` [2-4], the “Difference in depletion (under light irradiation - without light irradiation) NAC (%)” value [6, 9] is reported as 20.9%, the “Difference in depletion (under light irradiation - without light irradiation) NAC (%)” value [6, 10] is reported as 60.1% and the “Difference in depletion (under light irradiation - without light irradiation) NAC (%)” value [6, 11] is reported as 84.5%. For the same compound, the “NAC Depletion (%) under light irradiation” value [6, 9] was 20.9%, the “NAC Depletion (%) under light irradiation” value [6, 10] was 60.1% and the “NAC Depletion (%) under light irradiation” value [6, 11] was 84.5%. The “NAC Depletion (%) without light irradiation” value [6, 9] was 0.0%, the “NAC Depletion (%) without light irradiation” value [6, 10] was 0.0% and the “NAC Depletion (%) without light irradiation” value [6, 11] was 0.0%. The “Difference in depletion (under light irradiation - without light irradiation) NAL (%)” value [7, 9] was 0.3%, the “Difference in depletion (under light irradiation - without light irradiation) NAL (%)” value [7, 10] was 1.4% and the “Difference in depletion (under light irradiation - without light irradiation) NAL (%)” value [7, 11] was 4.4%. The “NAL Depletion (%) under light irradiation” value [7, 9] was 0.3%, the “NAL Depletion (%) under light irradiation” value [7, 10] was 1.4% and the “NAL Depletion (%) under light irradiation” value [7, 11] was 4.4%. For the same compound, the “NAL Depletion (%) without light irradiation” value [7, 9] was 0.0%, the “NAL Depletion (%) without light irradiation” value [7, 10] was 0.0% and the “NAL Depletion (%) without light irradiation” value [7, 11] was 0.0%. For the same compound, the “Difference in depletion (under light irradiation - without light irradiation) Average score (%)” value [8, 10] was 30.8%, the “Difference in depletion (under light irradiation - without light irradiation) Average score (%)” value [8, 11] was 44.5% and the “Average score (%) under light irradiation” value [8, 10] was 30.8%. The “Average score (%) under light irradiation” value [8, 11] was 44.5%, the “Average score (%) without light irradiation” value [8, 9] was 0.0% and the “Average score (%) without light irradiation” value [8, 10] was 0.0%. For the same compound, the “Average score (%) without light irradiation” value [8, 11] was 0.0%, the “Difference in depletion (under light irradiation - without light irradiation) Average score (%)” value [3, 9] was 12.3% and the “Difference in depletion (under light irradiation - without light irradiation) Average score (%)” value [3, 10] was 32.1%. The “Difference in depletion (under light irradiation - without light irradiation) Average score (%)” value [3, 11] was 45.8%, the “Average score (%) under light irradiation” value [3, 9] was 12.3% and the “Average score (%) under light irradiation” value [3, 10] was 32.1%. For the same compound, the “Average score (%) under light irradiation” value [3, 11] was 45.8%, the “Average score (%) without light irradiation” value [3, 9] was 0.0% and the “Average score (%) without light irradiation” value [3, 10] was 0.0%. For the same compound, the “Average score (%) without light irradiation” value [3, 11] was 0.0%, the “Difference in depletion (under light irradiation - without light irradiation) NAC (%)” value [4, 9] was 21.9% and the “Difference in depletion (under light irradiation - without light irradiation) NAC (%)” value [4, 10] was 60.2%. For the same compound, the “Difference in depletion (under light irradiation - without light irradiation) NAC (%)” value [4, 11] was 85.9%, the “NAC Depletion (%) under light irradiation” value [4, 9] was 21.9% and the “NAC Depletion (%) under light irradiation” value [4, 10] was 60.2%. The “NAC Depletion (%) under light irradiation” value [4, 11] was 85.9%, the “NAC Depletion (%) without light irradiation” value [4, 9] was 0.0% and the “NAC Depletion (%) without light irradiation” value [4, 10] was 0.0%. For the same compound, the “NAC Depletion (%) without light irradiation” value [4, 11] was 0.0%, the “Difference in depletion (under light irradiation - without light irradiation) NAL (%)” value [5, 9] was 2.6% and the “Difference in depletion (under light irradiation - without light irradiation) NAL (%)” value [5, 10] was 4.0%. For the same compound, the “Difference in depletion (under light irradiation - without light irradiation) NAL (%)” value [5, 11] was 5.6%, the “NAL Depletion (%) under light irradiation” value [5, 9] was 2.6% and the “NAL Depletion (%) under light irradiation” value [5, 10] was 4.0%. For the same compound, the “NAL Depletion (%) under light irradiation” value [5, 11] was 5.6%, the “NAL Depletion (%) without light irradiation” value [5, 9] was 0.0% and the “NAL Depletion (%) without light irradiation” value [5, 10] was 0.0%. For the same compound, the “NAL Depletion (%) without light irradiation” value [5, 11] was 0.0%.

For `Cc1c([N+](=O)[O-])c(C)c([N+](=O)[O-])c(C(C)(C)C)c1[N+](=O)[O-]` [No. 18, Musk xylene, reference compound], the In vivo phototoxicity ([1]; literature classification) is given as “Negative”, the In vivo photoallergy ([2]; literature classification) is given as “Positive” and the “Average score (%)” value [3] is given as 47.6%. The “NAC Depletion (%)” value [4] was 88.9% and the “NAL Depletion (%)” value [5] was 6.4%.

With `Nc1ccc(S(N)(=O)=O)cc1` [3-4, Sulfanilamide] the “Difference in depletion (under light irradiation - without light irradiation) NAC (%)” value [6, 10] was 51.3%, the “Difference in depletion (under light irradiation - without light irradiation) NAC (%)” value [6, 11] was 79.4% and the “NAC Depletion (%) under light irradiation” value [6, 10] was 51.3%. The “NAC Depletion (%) under light irradiation” value [6, 11] was 79.4%, the “NAC Depletion (%) without light irradiation” value [6, 9] was 0.0% and the “NAC Depletion (%) without light irradiation” value [6, 10] was 0.0%. The “NAC Depletion (%) without light irradiation” value [6, 11] was 0.0%, the “Difference in depletion (under light irradiation - without light irradiation) NAL (%)” value [7, 9] was 0.0% and the “Difference in depletion (under light irradiation - without light irradiation) NAL (%)” value [7, 10] was 0.3%. For the same compound, the “Difference in depletion (under light irradiation - without light irradiation) NAL (%)” value [7, 11] was 0.0%, the “NAL Depletion (%) under light irradiation” value [7, 9] was 0.0% and the “NAL Depletion (%) under light irradiation” value [7, 10] was 0.3%. The “NAL Depletion (%) under light irradiation” value [7, 11] was 0.0%, the “NAL Depletion (%) without light irradiation” value [7, 9] was 0.0% and the “NAL Depletion (%) without light irradiation” value [7, 10] was 0.0%. For the same compound, the “NAL Depletion (%) without light irradiation” value [7, 11] was 0.0%, the “Difference in depletion (under light irradiation - without light irradiation) Average score (%)” value [8, 9] was 10.2% and the “Difference in depletion (under light irradiation - without light irradiation) Average score (%)” value [8, 11] was 39.7%. The “Average score (%) under light irradiation” value [8, 9] was 10.2%, the “Average score (%) under light irradiation” value [8, 11] was 39.7% and the “Average score (%) without light irradiation” value [8, 9] was 0.0%. The “Average score (%) without light irradiation” value [8, 10] was 0.0%, the “Average score (%) without light irradiation” value [8, 11] was 0.0% and the “Difference in depletion (under light irradiation - without light irradiation) Average score (%)” value [3, 9] was 11.8%. For the same compound, the “Difference in depletion (under light irradiation - without light irradiation) Average score (%)” value [3, 11] was 40.6%, the “Average score (%) under light irradiation” value [3, 9] was 11.8% and the “Average score (%) under light irradiation” value [3, 11] was 40.6%. For the same compound, the “Average score (%) without light irradiation” value [3, 9] was 0.0%, the “Average score (%) without light irradiation” value [3, 10] was 0.0% and the “Average score (%) without light irradiation” value [3, 11] was 0.0%. For the same compound, the “Difference in depletion (under light irradiation - without light irradiation) NAC (%)” value [4, 10] was 49.9%, the “Difference in depletion (under light irradiation - without light irradiation) NAC (%)” value [4, 11] was 78.2% and the “NAC Depletion (%) under light irradiation” value [4, 10] was 49.9%. The “NAC Depletion (%) under light irradiation” value [4, 11] was 78.2%, the “NAC Depletion (%) without light irradiation” value [4, 9] was 0.0% and the “NAC Depletion (%) without light irradiation” value [4, 10] was 0.0%. For the same compound, the “NAC Depletion (%) without light irradiation” value [4, 11] was 0.0%, the “Difference in depletion (under light irradiation - without light irradiation) NAL (%)” value [5, 9] was 2.4% and the “Difference in depletion (under light irradiation - without light irradiation) NAL (%)” value [5, 10] was 1.8%. For the same compound, the “Difference in depletion (under light irradiation - without light irradiation) NAL (%)” value [5, 11] was 3.1%, the “NAL Depletion (%) under light irradiation” value [5, 9] was 2.4% and the “NAL Depletion (%) under light irradiation” value [5, 10] was 1.8%. For the same compound, the “NAL Depletion (%) under light irradiation” value [5, 11] was 3.1%, the “NAL Depletion (%) without light irradiation” value [5, 9] was 0.0% and the “NAL Depletion (%) without light irradiation” value [5, 10] was 0.0%. The “NAL Depletion (%) without light irradiation” value [5, 11] was 0.0%.

For `CC(C)O` [No. 47, 2-Propanol], the In vivo phototoxicity ([1]; in vivo) is given as “Negative”, the In vivo photoallergy ([2]; in vivo) is given as “Negative” and the “Average score (%)” value [3] is given as 0.2%.
